Activity calls are given as the source filed them. No cut-off for these calls is given here.
Tests used:
[1] = tested on: Fibroblast of cardiac tissue; test: Reversal of Ang II-induced proliferation in neonatal rat cardiac fibroblasts measured after 48 hrs by MTT assay; format: functional, cell-based
Mus musculus [2] = test: Anti-myocardial remodeling function in isoproterenol-induced C57BL/6 mouse model assessed as decrease in cardiac hypertrophy BNP protein at 50 mg/kg by one-time gavage for 21 days relative to control; format: functional; design: scale not given: the % may be the effect or the level left; conditions: time 21 day
[3] = AUC in Sprague-Dawley rat at 10 mg/kg, po measured upto 24 hrs; format: ADME, organism-based; design: dose 10 mg/kg, time < 24 hrs, route po; conditions: in vivo
[4] = Cytotoxicity against neonatal rat cardiac fibroblast assessed as cell survival rate at 10 uM measured after 48 hrs by MTT assay relative to control; format: toxicity, cell-based, Fibroblast of cardiac tissue; conditions: neonatal rat cardiac fibroblasts, read-out: Activity
[5] = tested on: Fibroblast of cardiac tissue; test: Antimigratory activity in neonatal rat cardiac fibroblasts assessed as fold decrease in Ang II-induced migration measured after 48 hrs by transwell test (reference value: 1.8 fold); format: functional
Mus musculus [6] = test: Anti-myocardial remodeling function in isoproterenol-induced C57BL/6 mouse model assessed as decrease in cardiac hypertrophy ANP protein at 50 mg/kg by one-time gavage for 21 days relative to control; format: functional; design: scale not given: the % may be the effect or the level left; conditions: time 21 day
Mus musculus [7] = test: Anti-myocardial remodeling function in isoproterenol-induced C57BL/6 mouse model assessed as decrease in heart weight to […] ratio at 20 mg/kg by one-time gavage for 21 days; format: functional; conditions: time 21 day
[8] = tested on: Fibroblast of cardiac tissue; test: Antimigratory activity in neonatal rat cardiac fibroblasts assessed as fold decrease in Ang II-induced migration measured after 48 hrs by scratch test; format: functional
[9] = Acute toxicity in C57BL/6 mouse assessed as effect on heart at 2 g/Kg by hematoxylin and eosin staining based histopathological analysis; format: tissue-based; conditions: in vivo, 2000 mg/kg
[10] = Clearance in Sprague-Dawley rat at 2 mg/kg, iv measured upto 24 hrs; format: ADME, organism-based; conditions: in vivo
[11] = Half life in Sprague-Dawley rat at 10 mg/kg, po measured upto 24 hrs; format: ADME, organism-based; conditions: in vivo
Mus musculus [12] = test: Anti-myocardial remodeling function in isoproterenol-induced C57BL/6 mouse heart injury model assessed as reversal of pathological damage at 20 to 50 mg/kg by one-time gavage for 21 days by Masson staining and Sirius Red staining based analysis; format: functional, organism-based; conditions: dose 20-50 mg/kg, time 21.0 day
[13] = Acute toxicity in C57BL/6 mouse assessed as survival at 2 g/Kg by one-time gavage measured after 2 weeks; conditions: in vivo, po, 2000 mg/kg, 336 h
[14] = tested on: Fibroblast of cardiac tissue; test: Reversal of Ang II-induced increase in […] level in neonatal rat cardiac fibroblasts by Western blot analysis; format: functional, cell-based
[15] = tested on: Fibroblast of cardiac tissue; test: Reversal of Ang II-induced increase in alpha-SMA level in neonatal rat cardiac fibroblasts by Western blot analysis; format: functional, cell-based
[16] = Half life in Sprague-Dawley rat at 2 mg/kg, iv measured upto 24 hrs; format: ADME, organism-based; conditions: in vivo
Mus musculus [17] = test: Anti-myocardial remodeling function in isoproterenol-induced C57BL/6 mouse model assessed as decrease in cardiac hypertrophy ANP protein at 20 mg/kg by one-time gavage for 21 days relative to control; format: functional; design: scale not given: the % may be the effect or the level left; conditions: time 21 day
[18] = biological target: Lysine-specific demethylase 5C (Homo sapiens, UniProt P41229); test: Inhibition of KDM5C (unknown origin) incubated for 30 mins by HRTF assay
Sequence of Lysine-specific demethylase 5C (P41229 whole entry): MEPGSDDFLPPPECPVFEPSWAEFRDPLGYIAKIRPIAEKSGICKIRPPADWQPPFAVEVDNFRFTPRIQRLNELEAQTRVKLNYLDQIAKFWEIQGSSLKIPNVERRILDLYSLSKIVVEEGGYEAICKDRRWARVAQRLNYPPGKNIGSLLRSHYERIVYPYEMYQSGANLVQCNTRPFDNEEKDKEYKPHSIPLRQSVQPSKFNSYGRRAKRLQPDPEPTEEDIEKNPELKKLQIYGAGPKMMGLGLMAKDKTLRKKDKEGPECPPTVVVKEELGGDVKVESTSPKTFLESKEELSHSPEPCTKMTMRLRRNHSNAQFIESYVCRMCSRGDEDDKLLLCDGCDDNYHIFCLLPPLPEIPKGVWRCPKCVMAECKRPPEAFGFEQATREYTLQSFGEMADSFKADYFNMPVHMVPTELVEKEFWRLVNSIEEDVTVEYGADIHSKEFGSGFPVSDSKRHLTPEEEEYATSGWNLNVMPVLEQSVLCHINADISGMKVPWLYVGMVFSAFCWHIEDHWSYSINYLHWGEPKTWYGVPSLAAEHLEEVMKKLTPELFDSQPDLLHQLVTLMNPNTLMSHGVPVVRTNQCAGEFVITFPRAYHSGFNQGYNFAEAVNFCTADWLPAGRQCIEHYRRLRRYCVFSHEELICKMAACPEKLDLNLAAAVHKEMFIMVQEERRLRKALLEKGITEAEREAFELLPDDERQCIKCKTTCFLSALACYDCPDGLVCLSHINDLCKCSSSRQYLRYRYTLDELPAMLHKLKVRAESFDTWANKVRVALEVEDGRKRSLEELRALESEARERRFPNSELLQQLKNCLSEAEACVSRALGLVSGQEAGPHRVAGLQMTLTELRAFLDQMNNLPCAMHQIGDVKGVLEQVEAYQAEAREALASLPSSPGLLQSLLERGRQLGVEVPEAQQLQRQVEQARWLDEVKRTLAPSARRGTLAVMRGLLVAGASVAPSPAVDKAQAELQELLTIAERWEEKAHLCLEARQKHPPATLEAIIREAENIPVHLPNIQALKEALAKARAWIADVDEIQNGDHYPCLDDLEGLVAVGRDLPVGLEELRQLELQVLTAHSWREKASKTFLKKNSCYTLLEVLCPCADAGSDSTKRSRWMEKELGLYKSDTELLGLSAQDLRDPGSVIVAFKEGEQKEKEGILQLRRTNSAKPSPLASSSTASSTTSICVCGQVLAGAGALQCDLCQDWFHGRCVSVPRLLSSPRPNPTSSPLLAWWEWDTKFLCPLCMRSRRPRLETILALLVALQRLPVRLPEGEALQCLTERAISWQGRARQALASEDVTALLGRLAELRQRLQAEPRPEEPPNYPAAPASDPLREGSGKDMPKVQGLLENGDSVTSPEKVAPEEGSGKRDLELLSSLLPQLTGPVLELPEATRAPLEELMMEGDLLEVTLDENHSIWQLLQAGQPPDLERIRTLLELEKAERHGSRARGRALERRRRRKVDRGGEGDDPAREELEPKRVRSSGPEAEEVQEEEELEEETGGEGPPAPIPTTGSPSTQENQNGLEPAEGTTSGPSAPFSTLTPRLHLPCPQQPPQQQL

[19] = Acute toxicity in C57BL/6 mouse assessed as effect on lung at 2 g/Kg by hematoxylin and eosin staining based histopathological analysis; format: tissue-based; conditions: in vivo, 2000 mg/kg
Mus musculus [20] = test: Anti-myocardial remodeling function in isoproterenol-induced C57BL/6 mouse model assessed as increase in shortening fraction at 50 mg/kg by one-time gavage for 21 days; format: functional; conditions: time 21 day
[21] = biological target: T1, Lysine-specific demethylase 5B (Homo sapiens, UniProt Q9UGL1); test: Inhibition of KDM5B (unknown origin) incubated for 30 mins by HRTF assay
T1 sequence (Q9UGL1 whole entry): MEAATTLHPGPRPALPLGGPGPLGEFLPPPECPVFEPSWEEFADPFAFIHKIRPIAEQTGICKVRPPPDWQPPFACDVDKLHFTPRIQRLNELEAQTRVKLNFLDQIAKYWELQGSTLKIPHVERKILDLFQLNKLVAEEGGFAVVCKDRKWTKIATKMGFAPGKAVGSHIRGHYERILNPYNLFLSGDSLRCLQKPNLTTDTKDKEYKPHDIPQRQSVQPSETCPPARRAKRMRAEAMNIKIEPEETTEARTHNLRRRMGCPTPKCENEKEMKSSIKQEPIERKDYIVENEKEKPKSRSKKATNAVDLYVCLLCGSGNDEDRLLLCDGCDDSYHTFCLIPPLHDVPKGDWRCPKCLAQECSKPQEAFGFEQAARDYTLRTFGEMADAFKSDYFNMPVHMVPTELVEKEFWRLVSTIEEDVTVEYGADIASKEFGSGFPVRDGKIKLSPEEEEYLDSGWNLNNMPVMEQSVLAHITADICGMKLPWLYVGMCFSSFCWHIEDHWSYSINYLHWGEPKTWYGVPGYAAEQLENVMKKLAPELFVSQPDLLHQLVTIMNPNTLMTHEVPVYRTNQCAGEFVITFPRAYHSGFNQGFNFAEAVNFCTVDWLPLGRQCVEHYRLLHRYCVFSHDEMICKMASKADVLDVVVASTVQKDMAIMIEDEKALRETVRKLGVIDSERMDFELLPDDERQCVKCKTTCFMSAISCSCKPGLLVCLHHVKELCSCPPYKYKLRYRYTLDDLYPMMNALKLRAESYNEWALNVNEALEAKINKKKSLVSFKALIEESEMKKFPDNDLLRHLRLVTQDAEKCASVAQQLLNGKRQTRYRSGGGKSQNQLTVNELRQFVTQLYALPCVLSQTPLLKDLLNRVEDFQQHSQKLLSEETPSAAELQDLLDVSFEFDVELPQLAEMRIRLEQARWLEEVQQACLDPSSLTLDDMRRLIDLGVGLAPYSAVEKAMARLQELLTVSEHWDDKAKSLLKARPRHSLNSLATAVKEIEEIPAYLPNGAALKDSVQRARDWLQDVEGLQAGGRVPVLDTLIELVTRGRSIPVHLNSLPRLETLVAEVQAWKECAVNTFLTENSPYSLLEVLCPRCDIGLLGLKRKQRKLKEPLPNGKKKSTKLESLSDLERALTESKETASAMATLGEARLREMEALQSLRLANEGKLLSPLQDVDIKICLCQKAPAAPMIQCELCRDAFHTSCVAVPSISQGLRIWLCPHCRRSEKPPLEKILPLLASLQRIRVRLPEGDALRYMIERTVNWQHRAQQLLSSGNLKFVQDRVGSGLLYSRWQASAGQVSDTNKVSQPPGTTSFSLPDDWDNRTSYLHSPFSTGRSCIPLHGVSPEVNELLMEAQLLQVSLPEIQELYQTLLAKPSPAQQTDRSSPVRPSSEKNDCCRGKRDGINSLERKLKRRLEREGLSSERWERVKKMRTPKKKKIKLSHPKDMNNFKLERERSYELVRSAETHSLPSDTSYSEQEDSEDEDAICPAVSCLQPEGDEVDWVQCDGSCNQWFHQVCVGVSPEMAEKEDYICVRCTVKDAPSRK

[22] = Cytotoxicity against neonatal rat Cardiomyocytes assessed as cell survival rate at 10 uM measured after 48 hrs by MTT assay; format: toxicity, cell-based, Cardiac muscle cell; conditions: read-out: Activity
Mus musculus [23] = test: Anti-myocardial remodeling function in isoproterenol-induced C57BL/6 mouse model assessed as increase in ejection fraction at 20 mg/kg by one-time gavage for 21 days; format: functional; conditions: time 21 day
[24] = tested on: Fibroblast of cardiac tissue; test: Reversal of Ang II-induced increase in collagen I level in neonatal rat cardiac fibroblasts by Western blot analysis; format: functional, cell-based
[25] = AUC in Sprague-Dawley rat at 2 mg/kg, iv measured upto 24 hrs; format: ADME, organism-based; design: dose 2 mg/kg, time < 24 hrs, route iv; conditions: in vivo
[26] = Acute toxicity in C57BL/6 mouse assessed as effect on kidney at 2 g/Kg by hematoxylin and eosin staining based histopathological analysis; format: tissue-based; conditions: in vivo, 2000 mg/kg
Mus musculus [27] = test: Anti-myocardial remodeling function in isoproterenol-induced C57BL/6 mouse model assessed as decrease in heart weight to […] ratio at 50 mg/kg by one-time gavage for 21 days; format: functional; conditions: time 21 day
Mus musculus [28] = test: Anti-myocardial remodeling function in isoproterenol-induced C57BL/6 mouse model assessed as increase in shortening fraction at 20 mg/kg by one-time gavage for 21 days; format: functional; conditions: time 21 day
[29] = Acute toxicity in C57BL/6 mouse assessed as effect on liver at 2 g/Kg by hematoxylin and eosin staining based histopathological analysis; format: tissue-based; conditions: in vivo, 2000 mg/kg
[30] = Cmax in Sprague-Dawley rat at 2 mg/kg, iv measured upto 24 hrs; format: ADME, organism-based; design: time < 24 hrs, dose 2 mg/kg, route iv; conditions: in vivo
[31] = Oral bioavailability in Sprague-Dawley rat at 10 mg/kg measured upto 24 hrs; format: ADME, organism-based; conditions: in vivo
[32] = tested on: Fibroblast of cardiac tissue; test: Reversal of Ang II-induced decrease in H3K4me3 level in neonatal rat cardiac fibroblasts by immunofluorescence staining assay; format: functional, cell-based
[33] = biological target: T1, Lysine-specific demethylase 5B; test: Inhibition of KDM5B (unknown origin) at 10 uM incubated for 30 mins by HRTF assay relative to control
Mus musculus [34] = test: Anti-myocardial remodeling function in isoproterenol-induced C57BL/6 mouse model assessed as decrease in heart weight to body weight ratio at 20 mg/kg by one-time gavage for 21 days; format: functional; conditions: time 21 day
[35] = Tmax in Sprague-Dawley rat at 10 mg/kg, po measured upto 24 hrs; format: ADME, organism-based; conditions: in vivo
[36] = Volume of distribution at steady state in Sprague-Dawley rat at 2 mg/kg, iv measured upto 24 hrs; format: ADME, organism-based; conditions: in vivo, read-out: Vdss
[37] = biological target: Lysine-specific demethylase 5A (Homo sapiens, UniProt P29375); test: Inhibition of KDM5A (unknown origin) incubated for 30 mins by HRTF assay
Sequence of Lysine-specific demethylase 5A (P29375 whole entry): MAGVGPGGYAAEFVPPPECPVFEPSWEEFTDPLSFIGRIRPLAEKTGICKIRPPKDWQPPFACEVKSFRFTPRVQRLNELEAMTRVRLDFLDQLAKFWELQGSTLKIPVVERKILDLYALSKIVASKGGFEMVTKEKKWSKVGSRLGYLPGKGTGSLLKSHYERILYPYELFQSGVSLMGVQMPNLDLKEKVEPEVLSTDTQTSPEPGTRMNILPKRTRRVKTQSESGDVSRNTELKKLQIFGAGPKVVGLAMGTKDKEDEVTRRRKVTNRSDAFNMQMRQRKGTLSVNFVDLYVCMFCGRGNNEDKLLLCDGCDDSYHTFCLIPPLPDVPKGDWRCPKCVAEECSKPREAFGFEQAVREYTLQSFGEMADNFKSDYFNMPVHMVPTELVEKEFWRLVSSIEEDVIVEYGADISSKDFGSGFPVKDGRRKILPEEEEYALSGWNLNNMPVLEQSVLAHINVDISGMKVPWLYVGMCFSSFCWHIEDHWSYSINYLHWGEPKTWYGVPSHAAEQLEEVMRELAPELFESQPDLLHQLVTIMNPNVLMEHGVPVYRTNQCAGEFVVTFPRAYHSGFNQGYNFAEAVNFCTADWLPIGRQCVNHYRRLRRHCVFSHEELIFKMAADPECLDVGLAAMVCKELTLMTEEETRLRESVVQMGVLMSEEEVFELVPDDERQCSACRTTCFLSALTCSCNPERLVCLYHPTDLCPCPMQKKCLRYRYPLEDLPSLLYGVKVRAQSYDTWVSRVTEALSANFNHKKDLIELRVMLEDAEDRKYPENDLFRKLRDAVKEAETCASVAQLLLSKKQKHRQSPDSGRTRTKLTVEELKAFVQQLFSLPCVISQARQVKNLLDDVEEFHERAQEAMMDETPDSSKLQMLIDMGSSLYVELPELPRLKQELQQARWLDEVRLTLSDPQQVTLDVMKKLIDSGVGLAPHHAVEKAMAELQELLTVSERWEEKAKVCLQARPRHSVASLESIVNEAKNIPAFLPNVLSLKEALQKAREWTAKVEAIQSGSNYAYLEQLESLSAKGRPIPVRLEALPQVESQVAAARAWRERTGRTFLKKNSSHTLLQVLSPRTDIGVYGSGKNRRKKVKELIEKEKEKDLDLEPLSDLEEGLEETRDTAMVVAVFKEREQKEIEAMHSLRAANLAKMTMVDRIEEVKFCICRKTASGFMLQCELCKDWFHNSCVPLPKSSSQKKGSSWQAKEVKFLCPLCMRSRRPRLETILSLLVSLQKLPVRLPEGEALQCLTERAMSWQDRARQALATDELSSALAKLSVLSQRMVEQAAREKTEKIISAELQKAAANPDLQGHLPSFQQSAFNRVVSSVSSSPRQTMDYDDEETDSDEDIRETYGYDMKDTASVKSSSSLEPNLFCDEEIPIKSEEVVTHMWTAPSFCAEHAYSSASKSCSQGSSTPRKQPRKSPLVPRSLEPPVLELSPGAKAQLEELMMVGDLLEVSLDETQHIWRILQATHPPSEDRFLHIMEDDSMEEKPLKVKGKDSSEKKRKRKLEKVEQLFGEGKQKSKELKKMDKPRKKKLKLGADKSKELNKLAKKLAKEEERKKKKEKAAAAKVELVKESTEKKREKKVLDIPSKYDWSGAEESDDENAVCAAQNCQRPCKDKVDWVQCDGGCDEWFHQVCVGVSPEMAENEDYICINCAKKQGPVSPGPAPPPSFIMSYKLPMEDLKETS

[38] = Clearance in Sprague-Dawley rat at 10 mg/kg, po measured upto 24 hrs; format: ADME, organism-based; conditions: in vivo
[39] = Cmax in Sprague-Dawley rat at 10 mg/kg, po measured upto 24 hrs; format: ADME, organism-based; design: dose 10 mg/kg, time < 24 hrs, route po; conditions: in vivo
Mus musculus [40] = test: Anti-myocardial remodeling function in isoproterenol-induced C57BL/6 mouse model assessed as decrease in cardiac hypertrophy BNP protein at 20 mg/kg by one-time gavage for 21 days relative to control; format: functional; design: scale not given: the % may be the effect or the level left; conditions: time 21 day
[41] = tested on: Fibroblast of cardiac tissue; test: Reversal of Ang II-induced decrease in H3K4me3 level in neonatal rat cardiac fibroblasts by Western blot analysis; format: functional, cell-based
Mus musculus [42] = test: Anti-myocardial remodeling function in isoproterenol-induced C57BL/6 mouse model assessed as increase in ejection fraction at 50 mg/kg by one-time gavage for 21 days; format: functional; conditions: time 21 day
[43] = Acute toxicity in C57BL/6 mouse assessed as body weight at 2 g/Kg by one-time gavage measured after 2 weeks; conditions: in vivo, po, 2000 mg/kg, 336 h
Mus musculus [44] = test: Anti-myocardial remodeling function in isoproterenol-induced C57BL/6 mouse model assessed as decrease in heart weight to body weight ratio at 50 mg/kg by one-time gavage for 21 days; format: functional; conditions: time 21 day
[45] = Acute toxicity in C57BL/6 mouse assessed as effect on spleen at 2 g/Kg by hematoxylin and eosin staining based histopathological analysis; format: tissue-based; conditions: in vivo, 2000 mg/kg
[46] = Volume of distribution at steady state in Sprague-Dawley rat at 10 mg/kg, po measured upto 24 hrs; format: ADME, organism-based; conditions: in vivo

## CC(C)c1cc(C(=O)N2CC[C@@H](NC(=O)NC3CC3)C2)n[nH]1
[1]
  Activity: Active
Mus musculus [2]
  Activity: 54%
[3]
  AUC at 24 h: 1040 ng·h/mL
[4]
  viability at 48 h, 10 µM: 90%
[5]
  Ratio: 0.6
Mus musculus [6]
  Activity: 71%
Mus musculus [7]
  Ratio: 0.93
[8]
  Ratio: 0.77
[9]
  Activity: Non-Toxic
[10]
  clearance: 70 mL/min/kg
[11]
  half-life: 144 min
Mus musculus [12]
  Activity: Active
[13]
  Activity: Non-Toxic
[14]
  Activity: Active
[15]
  Activity: Active
[16]
  half-life: 24 min
Mus musculus [17]
  Activity: 85%
[18]
  IC50: 353 nM
[19]
  Activity: Non-Toxic
Mus musculus [20]
  Activity: 50%
[21]
  IC50: 44 nM
[22]
  viability at 48 h, 10 µM: 90%
Mus musculus [23]
  Activity: 77%
[24]
  Activity: Active
[25]
  AUC at 24 h: 480 ng·h/mL
[26]
  Activity: Non-Toxic
Mus musculus [27]
  Ratio: 0.89
Mus musculus [28]
  Activity: 44%
[29]
  Activity: Non-Toxic
[30]
  Cmax: 1230 ng/mL
[31]
  bioavailability: 42.4%
[32]
  Activity: Active
[33]
  inhibition: 100%
Mus musculus [34]
  Ratio: 0.93
[35]
  Tmax: 24 min
[36]
  Vd: 2.7 L/kg
[37]
  IC50: 79 nM
[38]
  CL/F: 165 mL/min/kg
[39]
  Cmax: 710 ng/mL
Mus musculus [40]
  Activity: 75%
[41]
  Activity: Active
Mus musculus [42]
  Activity: 83%
[43]
  Activity: Non-Toxic
Mus musculus [44]
  Ratio: 0.89
[45]
  Activity: Non-Toxic
[46]
  Vdss: 33.4 L/kg
